The values below come from patent publication US6663881B2 (priority 1993, dated 2003).

Data set [1] has as its system Vascular smooth muscle (BO54) cells. It is filed as cell-based, baboon.
Data set [2] has the same test system. It is filed as cell-based, baboon. This is another data set of the same source.
The test system of data set [3] is Vascular smooth muscle cells.
Data set [4] concerns balloon traumatized left carotid artery. The data set can be described thus: Periadventitial delivery of taxol crystals in pluronic gel, balloon traumatized rat carotid artery. It counts as in vivo, rats. The protocol:
To further evaluate the efficacy of crystalline taxol to inhibit neointimal formation in rats, four groups of 5-6 adult male rats underwent balloon trauma of the left carotid artery followed immediately by periadventitial delivery of 1, 0.1, 0.01 or 0 mg of taxol crystals in 500 mg of a pluronic polymer in gel matrix. Fourteen days later, the rats were sacrificed, serum was collected and their carotid arteries were processed for histologic and morphometric analysis.

Data set [5] has the same test system. The following applies: rat, in vivo.
For data set [6], the system named is balloon traumatized swine femoral arteries. The data set can be described thus: Tissue distribution of crystalline 3H-cytochalasin B after local delivery. On the set-up: species or system Yorkshire crossbred swine. The note with it: in vivo. The procedure:
The in vivo tissue distribution of cytochalasin B administered in crystalline form was evaluated in balloon traumatized swine femoral arteries after local delivery. A femoral artery of a Yorkshire crossbred swine was balloon traumatized by overinflation and rotation of a Vascu-Flo™ Silicone embolectomy catheter. Balloon trauma was immediately followed by intravascular delivery of 10 μg/ml ^3H-cytochalasin B crystals (Sigma Chemical Co., St. Louis, Mo.) in saline (saturated) for three minutes under 1 atm of pressure. Blood flow was resumed in the artery for five minutes prior to sacrifice of the animal.

Data set [7] can be described thus: Human liver slices distribution and metabolism study (HPLC). It counts as in vitro ADME. The procedure:
^3H-cytochalasin B at a dose of 1.5 or 8 μg/ml was mixed with viable or non-viable human liver slices and media, and the amount of ^3H-cytochalasin B in media or tissue assessed by HPLC (Tables 8 and 9).

Data set [8] can be described thus: MTT activity in human liver slices after 24 hour exposure. It is filed as cell-based. The procedure:
The cytotoxity of ^3H-cytochalasin B and its subsequent metabolites was also assessed by evaluating dose dependent changes in mitochondrial function by monitoring 3-[4, 5-dimethylthiazol-2yl]-2, 5-diphenyltetrazolium bromide (MTT) activity following a 24 hour exposure of human liver slices to the test agent (Table 10).

The nature of data set [9]: Biodistribution of 3H-cytochalasin B i.v. (radioactivity). It is filed as in vivo, BALB/c mice. The procedure:
^3H-cytochalasin B (2 μg; 30 μCi/μg) was injected i.v. into BALB/c mice having urinary bladders that had been externally ligated. Animals were sacrificed at 15 minutes, 30 minutes, 2 hours or 16 hours post-injection. Organs were removed, blotted, weighed, air dried and assayed for radioactivity. Fifty −73% of the total injected dose was accounted for in the tissues sampled (blood, heart, brain, muscle, bone, lung, liver, spleen, stomach, kidney, intestines, and urinary bladder). Clearance of ^3H-cytochalasin B from the blood was extremely rapid with less than 1% of the injected dose in circulation by 15 minutes.

Data set [10] can be described thus: Stability and metabolism in saline, human plasma and human whole blood (HPLC). It is filed as in vitro ADME. The following applies: 20 hours at 37° C. The protocol: To determine the metabolism of ^3H-cytochalasin B in human blood, ^3H-cytochalasin B (8 μg/ml) was dissolved in saline; 1:1 dilution of saline and human plasma; or 1:1 dilution of saline and human whole blood.

Where [11] appears, read: 1.5 μg/ml, Media/viable tissue, 1 h.
The mark [12] stands for this setting: 1.5 μg/ml, Media/viable tissue, 1 h at 37° C.
The mark [13] stands for this setting: 1.5 μg/ml, Media/viable tissue, 4 h.
[14] abbreviates: 8 μg/ml, Media/boiled tissue, 4 h.
Where [15] appears, read: 8 μg/ml, Media/boiled tissue, 24 h.

Consider `CC(=O)O[C@@H]1/C=C\[C@@](C)(O)C(=O)[C@@H](C)C/C=C\[C@H]2[C@H](O)C(C)=C(C)[C@H]3C(Cc4ccccc4)NC(=O)[C@]132` (stereo partly shown) [cytochalasin C], for which the “MED, DNA synthesis assay” value in data set [1] was 0.01 µg/mL.
For `O=[N+]([O-])OCC(CO[N+](=O)[O-])O[N+](=O)[O-]` [nitroglycerin], in data set [1], the “DNA synthesis inhibition compared with protein synthesis inhibition” value is given as “to a greater extent than they inhibited protein synthesis”.
Take `CN[C@@H]1C[C@H]2O[C@@](C)([C@@H]1OC)n1c3ccccc3c3c4c(c5c6ccccc6n2c5c31)C(=O)NC4` [staurosporin]: in [2], the “minimum effective dose (MED), protein synthesis assay” value amounted to 100 ng/mL. Besides, the “minimum effective dose (MED), DNA assay” value in [1] is 1 ng/mL. In addition, in data set [3], the “cytotoxicity grade at in vitro effective dosage” value was 2.
`Cc1ccc(C(=O)Nc2ccc(S(=O)(=O)O)c3cc(S(=O)(=O)O)cc(S(=O)(=O)O)c23)cc1NC(=O)c1cccc(NC(=O)Nc2cccc(C(=O)Nc3cc(C(=O)Nc4ccc(S(=O)(=O)O)c5cc(S(=O)(=O)O)cc(S(=O)(=O)O)c45)ccc3C)c2)c1` [suramin]: the “DNA synthesis inhibition compared with protein synthesis inhibition” value in data set [1] is “to a greater extent than they inhibited protein synthesis”.
Turning to `CC(=O)O[C@H]1C(=O)[C@@]2(C)[C@H]([C@H](OC(=O)c3ccccc3)[C@]3(O)C[C@H](OC(=O)[C@H](O)[C@@H](NC(=O)c4ccccc4)c4ccccc4)C(C)=C1C3(C)C)[C@]1(OC(C)=O)CO[C@@H]1C[C@@H]2O` [taxol], in data set [4] (0.01 mg), the “neointimal area and neointimal/medial ratio vs control” value is “reduction in their neointimal area and neointimal/medial ratio”; the toxicity result is “no”. Further, in [4] (0.1 mg), the “neointimal area and neointimal/medial ratio vs control” value is “reduction in their neointimal area and neointimal/medial ratio”; the toxicity entry is given as “minimal”. Moreover, the toxicity result in data set [4] (1.0 mg) is recorded as “limited”. Further, in data set [5], the “morphometry vs untreated controls” value is “statistically significantly larger luminal areas and no neointimal proliferation”; the post-surgical weight gain result is “delay in post-surgical weight gain”.
For ^3H-cytochalasin B, the tissue localization result in data set [6] is given as “localized predominantly to the adventitia”. Further, the “total reactivity in the tissue” value in [7] is “less than 20%”. Besides, the “total reactivity present in the media” value in data set [7] is listed as “greater than 80%”. For the same molecule, the “% Metabolized of Extractable Activity” value is 43.0% in data set [7] (setting [11]); 77.0% in data set [7] (setting [13]); 98.7% in [7] (1.5 μg/ml, Media/viable tissue, 24 h); 5% in data set [7] (8 μg/ml, Media Only, 1 h); 5% in data set [7] (8 μg/ml, Media Only, 24 h); 5% in [7] (setting [14]). The “% Metabolized of Extractable Activity” value was 5% in data set [7] (setting [15]); 24.2% in data set [7] (8 μg/ml, Media/viable tissue, 1 h); 59.4% in [7] (8 μg/ml, Media/viable tissue, 4 h); 98.0% in data set [7] (8 μg/ml, Media/viable tissue, 24 h). The “% Non extractable Activity” value in data set [7] (setting [11]) is given as 0.5%; in data set [7] (8 μg/ml, Media/boiled tissue, 1 h), 0.5%; in data set [7] (setting [14]) it was 1%; in [7] (setting [15]), 1.3%. The “% Activity in Media” value in data set [7] (setting [12]) worked out at 84%; in data set [7] (setting [13]) it was 84%; in [7] (setting [15]) it was 87%. In addition, the results for the “% Activity in Tissue” value in data set [7] (setting [12]), in data set [7] (setting [13]) and in data set [7] (setting [15]) were 16%, 16% and 13%, respectively. Moreover, in data set [7] (setting [14]), the “% Extractable Activity” value is given as 99.0%. In addition, the “cytotoxicity of agent or its metabolites” value in data set [8] was “not cytotoxic”. For the same molecule, the “injected dose in circulation” value in [9] (by 15 minutes) is recorded as “less than 1%”. For the same molecule, in data set [9] (mouse, in vivo), the “tissues with significant retention of 3H activity” value was “Only liver, skeletal muscle and intestines showed significant retention”. The metabolism entry in [10] (8 μg/ml in 1:1 saline and human plasma) was “not metabolized”; in data set [10] (8 μg/ml in 1:1 saline and human whole blood) it was “metabolized by human whole blood”; in data set [10] (8 μg/ml in saline), “not metabolized”.
